From article PMC4457528, “Identification of Novel Small Molecule Inhibitors of Oncogenic RET Kinase” (PLoS ONE, 2015)
Where two headings read alike, the source gives them in different places.

What was measured:
Test in all cases: KinomeScan kinase panel, single concentration 10 µM
Assay type in all cases: binding
[1] = target: T1, KinomeScan kinase panel (Homo sapiens, UniProt Q09013); conditions: DMPK, 10 µM; read-out: score (%)
T1 construct: purchased DiscoveRx (KinomeScan)
T1 sequence (Q09013 1-629): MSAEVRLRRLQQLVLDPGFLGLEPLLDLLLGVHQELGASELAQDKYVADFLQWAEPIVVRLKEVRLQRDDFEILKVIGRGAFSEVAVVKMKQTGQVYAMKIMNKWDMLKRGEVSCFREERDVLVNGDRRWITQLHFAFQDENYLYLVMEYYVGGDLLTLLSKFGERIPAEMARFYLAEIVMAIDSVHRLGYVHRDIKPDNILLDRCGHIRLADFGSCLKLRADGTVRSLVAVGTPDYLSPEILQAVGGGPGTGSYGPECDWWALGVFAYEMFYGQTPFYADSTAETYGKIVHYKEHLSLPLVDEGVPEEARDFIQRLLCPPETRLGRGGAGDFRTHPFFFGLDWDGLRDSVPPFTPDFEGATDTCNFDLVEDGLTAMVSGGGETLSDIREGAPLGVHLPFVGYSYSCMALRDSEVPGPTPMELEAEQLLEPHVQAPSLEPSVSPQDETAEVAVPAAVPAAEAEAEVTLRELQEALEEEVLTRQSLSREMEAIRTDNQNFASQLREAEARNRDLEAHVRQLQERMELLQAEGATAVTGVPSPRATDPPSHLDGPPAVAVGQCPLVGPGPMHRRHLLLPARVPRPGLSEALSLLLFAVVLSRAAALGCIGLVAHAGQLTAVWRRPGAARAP

[2] = target: T2, KinomeScan kinase panel (Homo sapiens, UniProt P53667); conditions: LIMK1, 10 µM; read-out: score (%)
T2 construct: purchased DiscoveRx (KinomeScan)
T2 sequence (P53667 whole entry): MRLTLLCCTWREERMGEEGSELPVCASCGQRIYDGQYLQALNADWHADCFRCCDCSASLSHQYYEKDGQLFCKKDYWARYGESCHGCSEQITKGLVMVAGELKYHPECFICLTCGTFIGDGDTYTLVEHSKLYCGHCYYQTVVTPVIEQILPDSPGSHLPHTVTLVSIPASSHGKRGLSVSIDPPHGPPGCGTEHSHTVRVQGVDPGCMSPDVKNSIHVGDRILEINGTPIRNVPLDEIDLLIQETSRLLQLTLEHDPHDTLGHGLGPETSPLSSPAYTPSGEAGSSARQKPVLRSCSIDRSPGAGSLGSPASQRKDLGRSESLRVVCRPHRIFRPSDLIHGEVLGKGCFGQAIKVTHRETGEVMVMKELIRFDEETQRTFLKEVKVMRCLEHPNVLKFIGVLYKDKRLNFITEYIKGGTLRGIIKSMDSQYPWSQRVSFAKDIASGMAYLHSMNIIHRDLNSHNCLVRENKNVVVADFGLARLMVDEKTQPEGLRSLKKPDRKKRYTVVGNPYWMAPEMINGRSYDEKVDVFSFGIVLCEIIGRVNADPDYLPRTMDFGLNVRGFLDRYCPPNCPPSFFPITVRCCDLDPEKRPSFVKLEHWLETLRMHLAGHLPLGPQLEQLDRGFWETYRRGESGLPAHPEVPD

[3] = target: T3, KinomeScan kinase panel (Homo sapiens, UniProt Q14164); conditions: IKK-epsilon, 10 µM; read-out: score (%)
T3 construct: purchased DiscoveRx (KinomeScan)
T3 sequence (Q14164 1-716): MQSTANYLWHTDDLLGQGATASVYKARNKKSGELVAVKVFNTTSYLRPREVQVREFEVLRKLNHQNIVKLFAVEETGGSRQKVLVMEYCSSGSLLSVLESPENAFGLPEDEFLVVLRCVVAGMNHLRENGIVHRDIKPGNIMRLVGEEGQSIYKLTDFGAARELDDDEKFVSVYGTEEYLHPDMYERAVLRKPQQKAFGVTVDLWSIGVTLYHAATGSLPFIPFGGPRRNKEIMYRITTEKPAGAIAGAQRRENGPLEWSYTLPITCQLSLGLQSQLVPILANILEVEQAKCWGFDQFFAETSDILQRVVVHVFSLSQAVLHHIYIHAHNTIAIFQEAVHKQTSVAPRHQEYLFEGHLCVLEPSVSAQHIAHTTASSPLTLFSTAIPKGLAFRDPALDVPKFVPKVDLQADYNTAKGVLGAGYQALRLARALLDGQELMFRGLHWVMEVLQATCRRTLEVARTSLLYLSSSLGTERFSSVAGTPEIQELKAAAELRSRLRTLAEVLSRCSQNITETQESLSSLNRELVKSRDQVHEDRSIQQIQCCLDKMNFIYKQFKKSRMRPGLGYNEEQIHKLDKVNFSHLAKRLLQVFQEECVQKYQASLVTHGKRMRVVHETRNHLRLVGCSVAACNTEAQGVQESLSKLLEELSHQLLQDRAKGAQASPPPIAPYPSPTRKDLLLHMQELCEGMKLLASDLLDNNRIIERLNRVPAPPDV

[4] = target: T4, KinomeScan kinase panel (Homo sapiens, UniProt Q92772); conditions: CDKL2, 10 µM; read-out: score (%)
T4 construct: purchased DiscoveRx (KinomeScan)
T4 sequence (Q92772 1-493): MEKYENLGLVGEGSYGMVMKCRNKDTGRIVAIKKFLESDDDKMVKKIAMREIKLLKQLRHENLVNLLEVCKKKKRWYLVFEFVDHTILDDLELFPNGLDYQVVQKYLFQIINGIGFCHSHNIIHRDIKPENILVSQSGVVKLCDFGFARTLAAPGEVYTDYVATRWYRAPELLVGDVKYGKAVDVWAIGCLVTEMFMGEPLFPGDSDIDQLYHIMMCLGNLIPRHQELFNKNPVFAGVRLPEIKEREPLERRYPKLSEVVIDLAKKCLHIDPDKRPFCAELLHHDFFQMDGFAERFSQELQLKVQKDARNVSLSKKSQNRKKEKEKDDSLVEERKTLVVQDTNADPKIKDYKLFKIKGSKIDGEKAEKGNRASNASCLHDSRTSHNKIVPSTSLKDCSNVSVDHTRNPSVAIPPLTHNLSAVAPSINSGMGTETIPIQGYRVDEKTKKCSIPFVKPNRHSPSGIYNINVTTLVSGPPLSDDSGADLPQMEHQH

[5] = target: T5, KinomeScan kinase panel (Homo sapiens, UniProt P07948); conditions: LYN, 10 µM; read-out: score (%)
T5 construct: purchased DiscoveRx (KinomeScan)
T5 sequence (P07948 whole entry): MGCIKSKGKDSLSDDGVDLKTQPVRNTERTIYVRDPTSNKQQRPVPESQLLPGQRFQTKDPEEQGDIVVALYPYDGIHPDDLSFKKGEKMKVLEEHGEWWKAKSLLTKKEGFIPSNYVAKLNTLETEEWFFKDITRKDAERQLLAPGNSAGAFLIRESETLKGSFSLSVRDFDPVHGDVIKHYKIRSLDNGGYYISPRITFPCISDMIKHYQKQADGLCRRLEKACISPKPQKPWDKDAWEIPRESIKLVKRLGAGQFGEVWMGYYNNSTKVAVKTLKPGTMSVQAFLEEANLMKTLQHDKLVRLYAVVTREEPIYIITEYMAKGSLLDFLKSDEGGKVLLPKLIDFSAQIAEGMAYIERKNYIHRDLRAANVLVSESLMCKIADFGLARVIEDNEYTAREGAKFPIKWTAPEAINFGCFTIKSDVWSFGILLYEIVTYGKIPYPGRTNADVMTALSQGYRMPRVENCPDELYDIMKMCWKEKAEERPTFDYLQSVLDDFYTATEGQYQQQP

[6] = target: T6, KinomeScan kinase panel (Homo sapiens, UniProt Q9UQM7); conditions: CAMK2A, 10 µM; read-out: score (%)
T6 construct: purchased DiscoveRx (KinomeScan)
T6 sequence (Q9UQM7 whole entry): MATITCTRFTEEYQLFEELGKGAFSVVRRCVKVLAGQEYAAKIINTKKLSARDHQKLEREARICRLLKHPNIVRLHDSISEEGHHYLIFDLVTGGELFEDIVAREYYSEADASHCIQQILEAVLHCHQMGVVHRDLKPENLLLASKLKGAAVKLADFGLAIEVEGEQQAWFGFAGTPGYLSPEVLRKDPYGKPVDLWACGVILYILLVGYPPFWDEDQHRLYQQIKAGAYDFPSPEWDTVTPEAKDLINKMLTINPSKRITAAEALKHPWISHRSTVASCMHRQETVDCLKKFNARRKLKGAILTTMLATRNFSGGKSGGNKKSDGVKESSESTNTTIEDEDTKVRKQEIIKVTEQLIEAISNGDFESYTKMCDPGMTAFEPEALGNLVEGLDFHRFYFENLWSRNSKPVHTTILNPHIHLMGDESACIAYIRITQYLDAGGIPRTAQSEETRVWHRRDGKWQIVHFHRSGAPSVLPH

[7] = target: T7, KinomeScan kinase panel (Homo sapiens, UniProt Q9UQB9); conditions: AURKC, 10 µM; read-out: score (%)
T7 construct: purchased DiscoveRx (KinomeScan)
T7 sequence (Q9UQB9 1-309): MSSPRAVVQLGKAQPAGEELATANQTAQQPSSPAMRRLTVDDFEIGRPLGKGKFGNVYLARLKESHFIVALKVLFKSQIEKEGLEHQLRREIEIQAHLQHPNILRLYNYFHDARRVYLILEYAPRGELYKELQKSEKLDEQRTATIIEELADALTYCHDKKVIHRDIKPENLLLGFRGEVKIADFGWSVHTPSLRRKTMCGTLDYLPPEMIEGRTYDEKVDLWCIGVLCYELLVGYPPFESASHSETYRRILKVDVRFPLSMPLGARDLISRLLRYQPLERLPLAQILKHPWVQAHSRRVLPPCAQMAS

[8] = target: T8, KinomeScan kinase panel (Homo sapiens, UniProt O75116); conditions: read-out: score (%)
T8 construct: purchased DiscoveRx (KinomeScan)
T8 sequence (O75116 whole entry): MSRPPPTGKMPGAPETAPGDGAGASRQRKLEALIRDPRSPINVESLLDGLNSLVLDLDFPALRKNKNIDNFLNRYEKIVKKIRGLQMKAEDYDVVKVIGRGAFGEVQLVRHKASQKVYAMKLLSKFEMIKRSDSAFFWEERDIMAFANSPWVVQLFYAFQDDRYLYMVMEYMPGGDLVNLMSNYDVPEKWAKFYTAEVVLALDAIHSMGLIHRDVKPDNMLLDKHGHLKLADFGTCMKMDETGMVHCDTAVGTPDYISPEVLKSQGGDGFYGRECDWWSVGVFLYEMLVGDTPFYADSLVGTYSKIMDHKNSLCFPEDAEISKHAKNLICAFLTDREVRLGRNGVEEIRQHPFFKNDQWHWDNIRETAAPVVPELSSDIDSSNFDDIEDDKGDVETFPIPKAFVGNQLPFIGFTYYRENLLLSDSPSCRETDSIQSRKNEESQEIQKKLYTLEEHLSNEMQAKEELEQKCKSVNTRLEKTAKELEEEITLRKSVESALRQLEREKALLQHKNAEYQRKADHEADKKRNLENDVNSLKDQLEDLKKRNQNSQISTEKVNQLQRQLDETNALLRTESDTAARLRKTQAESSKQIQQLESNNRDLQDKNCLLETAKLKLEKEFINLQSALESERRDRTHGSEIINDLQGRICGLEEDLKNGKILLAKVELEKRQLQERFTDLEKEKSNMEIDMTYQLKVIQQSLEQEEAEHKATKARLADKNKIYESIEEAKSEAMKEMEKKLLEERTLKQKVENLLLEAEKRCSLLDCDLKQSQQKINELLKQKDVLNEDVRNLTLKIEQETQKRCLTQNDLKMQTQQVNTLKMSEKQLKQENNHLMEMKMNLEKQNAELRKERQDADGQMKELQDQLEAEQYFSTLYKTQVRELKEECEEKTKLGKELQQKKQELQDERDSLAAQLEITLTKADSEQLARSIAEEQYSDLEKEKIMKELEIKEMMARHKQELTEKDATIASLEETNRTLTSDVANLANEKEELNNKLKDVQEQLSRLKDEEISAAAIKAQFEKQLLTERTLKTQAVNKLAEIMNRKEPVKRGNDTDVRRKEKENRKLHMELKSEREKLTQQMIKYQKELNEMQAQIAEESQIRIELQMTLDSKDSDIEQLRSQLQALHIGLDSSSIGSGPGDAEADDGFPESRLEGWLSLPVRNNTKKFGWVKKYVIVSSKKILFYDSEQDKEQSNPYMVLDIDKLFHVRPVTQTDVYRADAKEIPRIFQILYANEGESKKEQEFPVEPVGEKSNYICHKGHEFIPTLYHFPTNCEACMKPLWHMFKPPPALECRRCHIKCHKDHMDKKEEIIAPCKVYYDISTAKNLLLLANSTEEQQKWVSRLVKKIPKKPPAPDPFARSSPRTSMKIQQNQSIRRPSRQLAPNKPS

[9] = target: T9, KinomeScan kinase panel (Homo sapiens, UniProt P30291); conditions: kinase WEE1; 10 µM; read-out: score (%)
T9 construct: purchased DiscoveRx (KinomeScan)
T9 sequence (P30291 whole entry): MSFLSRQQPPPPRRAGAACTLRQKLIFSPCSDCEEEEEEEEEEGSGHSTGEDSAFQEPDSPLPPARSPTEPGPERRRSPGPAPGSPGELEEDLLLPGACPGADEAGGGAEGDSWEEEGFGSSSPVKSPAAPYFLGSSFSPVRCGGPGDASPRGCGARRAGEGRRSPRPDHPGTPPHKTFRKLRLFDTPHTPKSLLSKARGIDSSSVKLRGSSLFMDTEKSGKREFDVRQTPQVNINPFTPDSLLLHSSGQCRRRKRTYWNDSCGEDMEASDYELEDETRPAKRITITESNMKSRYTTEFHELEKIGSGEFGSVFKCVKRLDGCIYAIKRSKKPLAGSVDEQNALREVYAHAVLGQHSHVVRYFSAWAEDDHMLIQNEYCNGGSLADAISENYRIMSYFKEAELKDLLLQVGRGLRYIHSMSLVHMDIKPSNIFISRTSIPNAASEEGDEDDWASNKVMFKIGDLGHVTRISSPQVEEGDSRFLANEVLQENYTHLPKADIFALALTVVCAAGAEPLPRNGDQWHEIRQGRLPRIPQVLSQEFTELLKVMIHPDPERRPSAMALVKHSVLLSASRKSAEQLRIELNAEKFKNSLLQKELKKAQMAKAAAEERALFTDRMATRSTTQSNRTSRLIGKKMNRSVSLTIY

[10] = target: T10, KinomeScan kinase panel (Homo sapiens, UniProt P42336); conditions: PIK3CA, 10 µM; read-out: score (%)
T10 construct: purchased DiscoveRx (KinomeScan)
T10 sequence (P42336 whole entry): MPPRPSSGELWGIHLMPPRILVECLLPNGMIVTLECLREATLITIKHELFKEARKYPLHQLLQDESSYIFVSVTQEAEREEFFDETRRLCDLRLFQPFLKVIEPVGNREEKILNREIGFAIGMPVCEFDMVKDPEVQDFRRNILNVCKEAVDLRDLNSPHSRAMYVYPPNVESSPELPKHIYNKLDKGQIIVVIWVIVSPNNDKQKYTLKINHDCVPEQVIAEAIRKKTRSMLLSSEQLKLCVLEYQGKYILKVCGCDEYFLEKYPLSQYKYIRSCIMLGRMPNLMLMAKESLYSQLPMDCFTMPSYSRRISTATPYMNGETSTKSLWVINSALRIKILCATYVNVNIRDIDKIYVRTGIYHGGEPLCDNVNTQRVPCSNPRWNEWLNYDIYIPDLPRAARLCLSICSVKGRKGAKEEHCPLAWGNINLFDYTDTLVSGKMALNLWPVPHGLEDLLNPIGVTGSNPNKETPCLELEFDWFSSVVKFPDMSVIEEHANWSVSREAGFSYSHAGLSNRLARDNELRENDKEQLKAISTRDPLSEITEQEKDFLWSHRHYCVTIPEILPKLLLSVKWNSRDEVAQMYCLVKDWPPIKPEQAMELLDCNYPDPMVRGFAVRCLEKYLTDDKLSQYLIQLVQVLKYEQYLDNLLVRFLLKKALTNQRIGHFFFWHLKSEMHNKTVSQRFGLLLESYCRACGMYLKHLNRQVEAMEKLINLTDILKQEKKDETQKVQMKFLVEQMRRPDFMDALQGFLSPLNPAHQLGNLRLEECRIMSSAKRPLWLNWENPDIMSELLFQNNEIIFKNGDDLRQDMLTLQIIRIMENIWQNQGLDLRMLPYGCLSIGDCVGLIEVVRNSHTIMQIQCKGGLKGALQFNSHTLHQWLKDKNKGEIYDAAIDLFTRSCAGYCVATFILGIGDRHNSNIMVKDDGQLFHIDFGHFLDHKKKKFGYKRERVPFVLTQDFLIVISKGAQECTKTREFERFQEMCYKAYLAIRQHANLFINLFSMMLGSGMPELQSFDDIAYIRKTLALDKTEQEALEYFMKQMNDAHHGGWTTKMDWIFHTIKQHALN

Row | SMILES | remaining binding at 10 µM [1] [%] | remaining binding at 10 µM [2] [%] | remaining binding at 10 µM [3] [%] | remaining binding at 10 µM [4] [%] | remaining binding at 10 µM [5] [%] | remaining binding at 10 µM [6] [%] | remaining binding at 10 µM [7] [%] | remaining binding at 10 µM ([8]; ROCK2, 10 µM) [%] | remaining binding at 10 µM [9] [%] | remaining binding at 10 µM [10] [%] | remaining binding at 10 µM ([8]; kinase ROCK2, 10 µM) [%]
1 | CCN1CCN(Cc2ccc(NC(=O)c3ccc(C)c(NC(=O)c4cncc(-c5cccs5)c4)c3)cc2C(F)(F)F)CC1 [ALW-II-41-27] | > 30 | 23 | > 30 | 9.1 | 0.1 | > 30 | > 30 | 18 | > 30 | > 30 | –
2 | CCN1CCN(Cc2ccc(NC(=O)c3ccc(C)c(/C=C/c4cnc5[nH]ccc5c4Cl)c3)cc2C(F)(F)F)CC1 [HG-6-63-01, (E)-3-(2-(4-chloro-1H-pyrrolo[2,3-b]pyridin-5-yl)vinyl)-N-(4-((4-ethylpiperazin-1-yl)methyl)-3-(trifluoromethyl)phenyl)-4-methylbenzamide] | > 30 | 4.1 | > 30 | 0.5 | 0.25 | > 30 | 0.65 | > 30 | > 30 | > 30 | –
3 | CCN1CCN(Cc2ccc(NC(=O)c3ccc(C)c(C#Cc4cccnc4)c3)cc2C(F)(F)F)CC1 [XMD15-44] | > 30 | 3 | > 30 | 1.4 | 0.05 | > 30 | 13 | – | 100 | 100 | 19
